From patent US6727066B2, “Genes expressed in treated human C3A liver cell cultures” (Incyte Corporation, priority 2000, dated 2004)

System: human C3A liver cell cultures
Assay: Microarray differential expression of cDNAs in treated human C3A liver cell cultures
Type: cell-based
Details: change vs untreated C3A cells
Source text: Incyte clones represent template sequences derived from the LIFESEQ GOLD assembled human sequence database (Incyte Genomics). In cases where more than one clone was available for a particular template, the 5′-most clone in the template was used on the microarray. The GENEALBUM GEM series 1-6 microarrays (Incyte Genomics) contain 52,616 array elements which represent 17,472 annotated clusters and 35,144 unannotated clusters. The HUMAN GENOME GEM series 1-3 microarrays (Incyte Genomics) contain 28,626 array elements which represent 10,068 annotated clusters and 18,558 unannotated clusters. For the UNIGEM series microarrays (Incyte Genomics), Incyte clones were mapped to non-redundant Unigene clusters (Unigene database (build 46), NCBI; Shuler (1997) J Mol Med 75:694-698), and the 5′ clone with the strongest BLAST alignment (at least 90% identity and 100 bp overlap) was chosen, verified, and used in the construction of the microarray. The UNIGEM V microarray (Incyte Genomics) contains 7075 array elements which represent 4610 annotated genes and 2,184 unannotated clusters.
To construct microarrays, cDNAs were amplified from bacterial cells using primers complementary to vector sequences flanking the cDNA insert. […] Amplified cDNAs were then purified using […]-400 columns (APB). Purified cDNAs were immobilized on polymer-coated glass slides. Glass microscope slides (Corning, Corning N.Y.) were cleaned by ultrasound in 0.1% SDS and acetone, with extensive distilled water washes between and after treatments. Glass slides were etched in 4% hydrofluoric acid (VWR Scientific Products, West Chester Pa.), washed thoroughly in distilled water, and coated with 0.05% aminopropyl silane (Sigma Aldrich) in 95% ethanol. Coated slides were cured in a 110° C. oven. cDNAs were applied to the coated glass substrate using a procedure described in U.S. Pat. No. 5,807,522. One microliter of the cDNA at an average concentration of 100 ng/ul was loaded into the open capillary printing element by a high-speed robotic apparatus which then deposited about 5 nl of cDNA per slide.
Microarrays were UV-crosslinked using a […] UV-crosslinker (Stratagene), and then washed at room temperature once in 0.2% SDS and three times in distilled water. Non-specific binding sites were blocked by incubation of microarrays in 0.2% casein in phosphate buffered saline (Tropix, Bedford Mass.) for 30 minutes at 60° C. followed by washes in 0.2% SDS and distilled water as before.
Early confluent C3A cells (ATTC, Manassas Va.) were treated with captopril (0.5, 2, 48, and 60 μg/ml) for 1, 3, and 6 hours. Early confluent C3A cells were treated with enalapril (0.5, 2, 48, and 60 μg/ml) for 1, 3, and 6 hours. Early confluent C3A cells were treated with LY294002 (0.5, 2, 15, and 25 μg/ml) for 1, 3, and 6 hours. Early confluent C3A cells were starved of insulin for 3 days prior to treatment, then treated with LY294002 (10 μM) for 2, 24, 36, and 72 hours in the presence of insulin. Early confluent C3A cells were treated with DES (1, 10, and 100 μM) for 1, 3, and 6 hours. Early confluent C3A cells were treated with dexamethasone (1 and 20 μM) for 0, 2, 6, and 24 hours. Early confluent C3A cells were treated with MCA (0.5 and 10 μM) for 2, 6, and 24 hours. In all cases mRNA from untreated early confluent cells were prepared in parallel as described below.
Cells were harvested and lysed in 1 ml of TRIZOL reagent (5×10^6 cells/ml; Life Technologies). The lysates were vortexed thoroughly and incubated at room temperature for 2-3 minutes and extracted with 0.5 ml chloroform. The extract was mixed, incubated at room temperature for 5 minutes, and centrifuged at 15,000 rpm for 15 minutes at 4° C. The aqueous layer was collected and an equal volume of isopropanol was added.

CCOC(=O)C(C)(C)Oc1ccc(Cl)cc1 [Clofibrate]
expression level of cDNA clone 63038: −3.95 | expression level of cDNA clone 86390: −2.83 | expression level of cDNA clone 118501: 4.87 | expression level of cDNA clone 280932: −2.8 | expression level of cDNA clone 341884: −2.32 | expression level of cDNA clone 348143: 2.11 | expression level of cDNA clone 407032: −3.05 | expression level of cDNA clone 460779: 2.26 | expression level of cDNA clone 630625: 2.53 | expression level of cDNA clone 758192: 3.11 | expression level of cDNA clone 818192: 2.87 | expression level of cDNA clone 1308112: 2.19 | expression level of cDNA clone 1315663: −3.18 | expression level of cDNA clone 1379063: −2.38 | expression level of cDNA clone 1448718: −2.95 | expression level of cDNA clone 1464613: −2.39 | expression level of cDNA clone 1511658: −3.56 | expression level of cDNA clone 1519683: −2.12 | expression level of cDNA clone 1559665: −4.058 | expression level of cDNA clone 1619292: −3.07 | expression level of cDNA clone 1696224: 11.91 | expression level of cDNA clone 1705208: 4.2 | expression level of cDNA clone 1711151: 2.4 | expression level of cDNA clone 1838114: −2.65 | expression level of cDNA clone 1845046: −2.5 | expression level of cDNA clone 1846463: 3.62 | expression level of cDNA clone 1890791: 2.7 | expression level of cDNA clone 1920215: −2.59 | expression level of cDNA clone 1922468: 3.03 | expression level of cDNA clone 1926883: 2.94 | expression level of cDNA clone 1930235: 2.73 | expression level of cDNA clone 1958226: −2.52 | expression level of cDNA clone 1966517: −2.8 | expression level of cDNA clone 1969563: 3.78 | expression level of cDNA clone 1998269: 2.7 | expression level of cDNA clone 2042056: 2.5 | expression level of cDNA clone 2055569: −2.76 | expression level of cDNA clone 2123516: 8.29 | expression level of cDNA clone 2273944: 2.48 | expression level of cDNA clone 2278688: −2.37 | expression level of cDNA clone 2352645: 3.77 | expression level of cDNA clone 2365335: −2.67 | expression level of cDNA clone 2382192: −2.54 | expression level of cDNA clone 2470485: −2.45 | expression level of cDNA clone 2740665: −2.54 | expression level of cDNA clone 2757583: 2.8 | expression level of cDNA clone 2769888: −2.79 | expression level of cDNA clone 2884613: 2.54 | expression level of cDNA clone 2890336: −2.38 | expression level of cDNA clone 2921991: −3.1 | expression level of cDNA clone 2933775: 4 | expression level of cDNA clone 2957205: 2.94 | expression level of cDNA clone 2999855: 2.4 | expression level of cDNA clone 3038508: 2.57 | expression level of cDNA clone 3136857: −3.24 | expression level of cDNA clone 3222802: 2.71 | expression level of cDNA clone 3380034: −3.15 | expression level of cDNA clone 3494714: −2.53 | expression level of cDNA clone 4066764: −2.3 | expression level of cDNA clone 4087621: −3.55 | expression level of cDNA clone 4110976: 2.18 | expression level of cDNA clone 4246966: 8.12 | expression level of cDNA clone 4287327: −3.47 | expression level of cDNA clone 4721130: 4.25 | expression level of cDNA clone 4795635: −2.38 | expression level of cDNA clone 5047895: −2.44 | expression level of cDNA clone 5077219: −2.63 | expression level of cDNA clone 5398014: −2.67 | expression level of cDNA clone 5398701: −3.55 | expression level of cDNA clone 5541949: 2.38

CC/C(=C(/CC)c1ccc(O)cc1)c1ccc(O)cc1 [DES, Diethylstilbestrol]
expression level of cDNA clone 60123: 2.6 | expression level of cDNA clone 172023: 2.85 | expression level of cDNA clone 437481: 2.24 | expression level of cDNA clone 443991: 2.62 | expression level of cDNA clone 510056: 2.73 | expression level of cDNA clone 891322: 3.81 | expression level of cDNA clone 970905: 2.25 | expression level of cDNA clone 1272483: 2.51 | expression level of cDNA clone 1326255: −2.7 | expression level of cDNA clone 1956982: −2.13 | expression level of cDNA clone 2055867: 2.97 | expression level of cDNA clone 2241825: −2.39 | expression level of cDNA clone 2311213: −2.34 | expression level of cDNA clone 2545486: −2.49 | expression level of cDNA clone 2550767: 2.1 | expression level of cDNA clone 2956444: 2.1 | expression level of cDNA clone 3222802: 2.4 | expression level of cDNA clone 4019706: 2.99 | expression level of cDNA clone 4287327: 2.66 | expression level of cDNA clone 4715924: −2.21 | expression level of cDNA clone 5293028: −2.3 | expression level of cDNA clone 5399371: −2.63 | expression level of cDNA clone 293477 (table row r18): 2.83 | expression level of cDNA clone 293477 (table row r23): 2

C[C@H](CS)C(=O)N1CCC[C@H]1C(=O)O [Captopril]
expression level of cDNA clone 63038: −3.16 | expression level of cDNA clone 118501: 4.36 | expression level of cDNA clone 160822: 2.5 | expression level of cDNA clone 211389: −2.52 | expression level of cDNA clone 630625: 2.81 | expression level of cDNA clone 1315663: −2.84 | expression level of cDNA clone 1368834: 2.47 | expression level of cDNA clone 1379063: −4 | expression level of cDNA clone 1381654: 1.57 | expression level of cDNA clone 1448718: −3.93 | expression level of cDNA clone 1519431: 2.36 | expression level of cDNA clone 1559756: 1.56 | expression level of cDNA clone 1619292: −4.3 | expression level of cDNA clone 1696224: 3.28 | expression level of cDNA clone 1711151: 3.05 | expression level of cDNA clone 1846209: 1.81 | expression level of cDNA clone 1930235: 3.25 | expression level of cDNA clone 1998269: 2.99 | expression level of cDNA clone 2055569: −3.33 | expression level of cDNA clone 2055867: −2.61 | expression level of cDNA clone 2123516: 3.89 | expression level of cDNA clone 2360580: −2.71 | expression level of cDNA clone 2446289: −2.15 | expression level of cDNA clone 2757583: 4.03 | expression level of cDNA clone 2769888: −2.01 | expression level of cDNA clone 2820337: 2.29 | expression level of cDNA clone 2884613: 2.46 | expression level of cDNA clone 2912637: −2.38 | expression level of cDNA clone 2921991: −5.21 | expression level of cDNA clone 2933775: 5.14 | expression level of cDNA clone 3225977: 2.89 | expression level of cDNA clone 3240708: 2.02 | expression level of cDNA clone 3381870: 2.62 | expression level of cDNA clone 3679667: −2.09 | expression level of cDNA clone 3815422: −3.78 | expression level of cDNA clone 4107126: 2.88
